The structures appear in SMILES notation. Where two headings read alike, the source gives them in different places. A value given as a limit tells only on which side of the number the result lay.

What all share (assay type): biochemical
Assay [1] concerns the target T1, Pancreatic lipase (PL) (Sus scrofa, UniProt P00591).
T1 construct: purchased Sigma Aldrich type II, Lot.SLBN9099V
T1 sequence (P00591 1-450): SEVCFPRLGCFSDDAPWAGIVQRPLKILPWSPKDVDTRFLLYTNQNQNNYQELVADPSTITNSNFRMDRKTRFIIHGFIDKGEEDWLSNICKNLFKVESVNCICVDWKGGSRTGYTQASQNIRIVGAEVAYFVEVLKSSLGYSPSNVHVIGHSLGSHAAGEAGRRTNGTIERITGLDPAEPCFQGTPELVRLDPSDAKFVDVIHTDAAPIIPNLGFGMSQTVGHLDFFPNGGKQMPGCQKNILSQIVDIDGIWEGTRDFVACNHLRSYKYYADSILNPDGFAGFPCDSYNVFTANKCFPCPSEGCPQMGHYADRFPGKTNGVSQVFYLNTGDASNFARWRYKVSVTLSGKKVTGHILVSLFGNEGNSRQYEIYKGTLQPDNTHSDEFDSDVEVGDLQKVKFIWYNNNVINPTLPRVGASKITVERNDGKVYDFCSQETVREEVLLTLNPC
Nature of the assay: Inhibition of PL-mediated 4-MUO hydrolysis. The following applies: 4-MUO substrate, mean ± SD (n = 3). The method, then: In addition, the background fluorescence in the absence of an enzyme source (PL) (add the same amount of citrate-Na2HPO4 buffer) was measured. […] Then start the reaction by adding 2 µL of 4-MUO probe (3 µM, final concentration). The fluorescence signal of 4-MU (hydrolytic metabolite) was detected by multi-mode microplate reader (SpectraMax M4, Molecular Devices, Urstein, Austria) with continuous oscillation for 20 min and recorded and analysed at 60 s intervals. The excitation wavelength and emission wavelength of 4-MU were set at 340 nm and 460 nm, respectively, and the gain value was 500.
(§1) Subsequently, various concentrations of substrates (selected according to Km) and different concentrations of inhibitors were used to determine the corresponding reaction rate, and the second slope graph of the Lineweaver–Burk diagram was used as a function of the inhibitor to calculate the corresponding inhibition constant (Ki) value. All kinetic data were fitted by the following kinetic equations (a–c), for competitive (a), non-competitive (b) and mixed inhibition (c): (a) V=(VmaxS)/[Km(1+I/Ki)+S] (b) V=(VmaxS)/[(Km+S)×(1+I/Ki)] (c) V=(VmaxS)/[(Km+S)×(1+I/αKi)] where V is the hydrolytic velocity of the reaction, Vmax is the maximum velocity. S and I are substrate (4-MUO, NLMe) and inhibitor (compound 39/41) concentrations, respectively. Ki is the inhibition constant of the tested inhibitor against the target PL and hCES1A; Km is the Michaelis constant (the substrate concentration at half of the Vmax).
All measurements were made in triplicate and the data obtained in the experiment were shown as mean ± SD.

Assay [2] deals with T2, hCES1A (Homo sapiens, UniProt P23141).
T2 construct: tissue Bioreclamation IVT lot No. X008067; host or cells: pooled human liver microsomes from 50 donors
T2 sequence (P23141 18-567): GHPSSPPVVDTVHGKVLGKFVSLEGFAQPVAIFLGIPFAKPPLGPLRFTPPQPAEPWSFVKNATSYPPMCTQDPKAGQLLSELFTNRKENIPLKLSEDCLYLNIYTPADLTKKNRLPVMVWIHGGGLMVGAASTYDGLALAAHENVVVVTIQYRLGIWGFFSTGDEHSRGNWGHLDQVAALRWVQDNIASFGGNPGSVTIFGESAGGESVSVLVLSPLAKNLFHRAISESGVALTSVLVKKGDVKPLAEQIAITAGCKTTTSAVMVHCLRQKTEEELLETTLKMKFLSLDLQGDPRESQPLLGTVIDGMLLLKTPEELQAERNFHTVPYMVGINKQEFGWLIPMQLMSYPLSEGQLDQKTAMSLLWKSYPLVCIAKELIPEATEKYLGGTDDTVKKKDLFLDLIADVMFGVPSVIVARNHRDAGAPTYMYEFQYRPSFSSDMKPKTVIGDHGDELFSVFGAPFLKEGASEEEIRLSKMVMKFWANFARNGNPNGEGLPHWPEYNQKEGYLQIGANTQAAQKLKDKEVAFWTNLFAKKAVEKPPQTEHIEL
Nature of the assay: Inhibition of hCES1A-mediated NLMe hydrolysis in human liver microsomes. The procedure:
N-Alkylated D-luciferin methyl ester (NLMe), a Specific probe for hCES1A[45], was used for assessing the inhibitory effects for triterpenoids, and BNPP was used as a positive inhibitor of hCES1A. […] Then NLMe (2 µL, 0.15 mM) was added to start the reaction. After shaking the reaction in 37 °C incubator for 10 min, 50 µL of reaction solution was removed and mixed with LDR (50 µL) to terminate the reaction. A multi-mode microplate reader was used to detect the luminescence signal of NL (the hydrolysed metabolite of NLMe). The luminescence product of NL was measured at 580 nm (gain: 140). The final volume ratio of DMSO was less than 1% (V/V).
as §1
All measurements were made in triplicate and the data obtained in the experiment were shown as mean ± SD. The IC50 and Ki values of the compounds with strong inhibitory effect were evaluated by nonlinear regression with graphpad prism 7.0 software (GraphPad Software, Inc., La Jolla, CA).

For assay [3], the target named is T3, hCES2A (Homo sapiens, UniProt O00748).
T3 sequence (O00748 27-559): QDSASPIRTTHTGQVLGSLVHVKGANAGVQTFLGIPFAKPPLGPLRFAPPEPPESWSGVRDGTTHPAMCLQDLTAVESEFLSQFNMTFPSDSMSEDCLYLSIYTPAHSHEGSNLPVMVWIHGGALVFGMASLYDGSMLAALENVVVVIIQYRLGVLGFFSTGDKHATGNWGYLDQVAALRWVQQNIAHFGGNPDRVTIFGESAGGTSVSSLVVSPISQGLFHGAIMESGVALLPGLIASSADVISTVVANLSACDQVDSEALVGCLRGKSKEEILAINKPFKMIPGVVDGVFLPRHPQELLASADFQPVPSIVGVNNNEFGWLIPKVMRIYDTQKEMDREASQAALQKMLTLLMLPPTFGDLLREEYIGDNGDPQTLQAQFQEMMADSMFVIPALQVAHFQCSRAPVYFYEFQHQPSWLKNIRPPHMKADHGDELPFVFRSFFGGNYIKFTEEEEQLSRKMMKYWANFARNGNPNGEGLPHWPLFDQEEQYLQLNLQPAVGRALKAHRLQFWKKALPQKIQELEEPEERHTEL
In words: Inhibition of hCES2A-mediated FD hydrolysis. The text has this: […] (FD) was used as the hCES2A specific probe substrate to assay the inhibitory effect of natural triterpenoids on hCES2A. The entire detailed operation process refers to the previously reported method, and finally the FD mixture was put into the multi-mode microplate reader for analysis and detection.

Setting [4] is: NLMe substrate, HLM, mean ± SD (n = 3), read-out: IC50 (µM) hCES1A.

Take `CC1(C)CC[C@]2(C(=O)O)CC[C@]3(C)C(=CC[C@@H]4[C@@]5(C)CC[C@H](O)[C@@](C)(CO)[C@@H]5CC[C@]43C)[C@@H]2C1` [Compound 3, hederagenin]: the IC50 in assay [1] came out at 13 ± 2.03 µM; in assay [2] (setting [4]), 0.04 ± 0.004 µM; in assay [3] (FD substrate, mean ± SD (n = 3), read-out: IC50 (µM) hCES2A), 9.22 ± 1.43 µM.
As to `C[C@H]1[C@H](C)CC[C@]2(C(=O)O)CC[C@]3(C)C(=CC[C@@H]4[C@@]5(C)C[C@@H](O)[C@H](O)[C@@](C)(CO)[C@@H]5CC[C@]43C)[C@H]12` [Compound 7, asiatic acid], the IC50 came out at 12.9 ± 1.87 µM in assay [1], 0.17 ± 0.02 µM in assay [2] and 65.1 ± 6.41 µM in assay [3].
With `C[C@H]1[C@H](C)CC[C@]2(C)CC[C@]3(C)C(=CC[C@@H]4[C@@]5(C)CC[C@@H](O)[C@](C)(C(=O)O)[C@@H]5CC[C@]43C)[C@H]12` [Compound 8, β-Boswellic acid], the IC50 in assay [1] is 0.42 ± 0.05 µM; in assay [2] (setting [4]), above 100 µM.
Consider `CC1=C(O)C(=O)C=C2C1=CC=C1[C@@]2(C)CC[C@@]2(C)[C@@H]3C[C@](C)(C(=O)O)CC[C@]3(C)CC[C@]12C` [Compound 11, Celastrol], for which the IC50 in assay [1] was found to be 4.69 ± 0.37 µM; in assay [2], 14.3 ± 3.03 µM.
`C=C(C)[C@@H]1CC[C@]2(CO)CC[C@]3(C)[C@H](CC[C@@H]4[C@@]5(C)CC[C@H](O)C(C)(C)[C@@H]5CC[C@]43C)[C@@H]12` [Compound 12, betulin]: the IC50 in assay [1] was 7.47 ± 1.68 µM; in assay [2], above 100 µM.
As for `O=[N+]([O-])c1ccc(OP(=O)(O)Oc2ccc([N+](=O)[O-])cc2)cc1` [Compound 29, Bis-p-nitrophenyl phosphate, reference compound], the IC50 in assay [1] is above 100 µM; in assay [2] (setting [4]), 0.36 ± 0.03 µM.
Consider `CC1(C)CCC2(C(=O)O)CCC3(C)C(=CCC4C5(C)CCC(=O)C(C)(C)C5CCC43C)C2C1` (centres unmarked) [Compound 30], for which the results for the IC50 in assay [1] and in assay [2] (setting [4]) were 7.51 ± 1.08 µM and 0.047 ± 0.003 µM, respectively.
Take `CC(=O)OC1CCC2(C)C(CCC3(C)C2CC=C2C4CC(C)(C)CCC4(C(=O)O)CCC23C)C1(C)C` (centres unmarked) [Compound 31]: the IC50 came out at 3.67 ± 0.72 µM in assay [1] and 0.051 ± 0.005 µM in assay [2].
Take `CC(=O)OC1CCC2(C)C(CCC3(C)C2CC=C2C4CC(C)(C)CCC4(C(N)=O)CCC23C)C1(C)C` (centres unmarked) [Compound 32]: the figures for the IC50 in assay [1] and in assay [2] (setting [4]) were 7.02 ± 0.59 µM and 0.11 ± 0.013 µM, respectively.
Taken in the same sequence, the figures for `CC1(C)CCC2(C(=O)O)CCC3(C)C(=CCC4C5(C)CCC(OC(=O)CCC(=O)O)C(C)(C)C5CCC43C)C2C1` (centres unmarked) [Compound 33] were 36.4 ± 5.17 µM and 0.043 ± 0.003 µM.
Taken in the same sequence, the figures for `CCCC(=O)OC1CCC2(C)C(CCC3(C)C2CC=C2C4CC(C)(C)CCC4(C(=O)O)CCC23C)C1(C)C` (centres unmarked) [Compound 34] were above 100 µM and 0.24 ± 0.049 µM.
In the case of `CCCCCC(=O)OC1CCC2(C)C(CCC3(C)C2CC=C2C4CC(C)(C)CCC4(C(=O)O)CCC23C)C1(C)C` (centres unmarked) [Compound 35], the values for the IC50 in assay [1] and in assay [2] (setting [4]) were above 100 µM and 1.82 ± 0.29 µM, respectively.
Consider `COC(=O)C12CCC(C)(C)CC1C1=CCC3C4(C)CCC(O)C(C)(C)C4CCC3(C)C1(C)CC2` (centres unmarked) [Compound 36], for which the half-maximal inhibitory concentration (IC50) in assay [1] turned out to be 30.6 ± 3.58 µM; in assay [2] (setting [4]), 0.856 ± 0.15 µM.
Taken in the same sequence, the figures for `CC1(C)CCC2(CO)CCC3(C)C(=CCC4C5(C)CCC(O)C(C)(C)C5CCC43C)C2C1` (centres unmarked) [Compound 37] were 11.8 ± 1.6 µM and 4.11 ± 0.77 µM.
Taken in the same sequence, the figures for `CC1(C)CCC2(C(N)=O)CCC3(C)C(=CCC4C5(C)CCC(O)C(C)(C)C5CCC43C)C2C1` (centres unmarked) [Compound 38] were 7.83 ± 1.21 µM and 0.48 ± 0.06 µM.
Taken in the same sequence, the figures for `CC1CCC2(C(=O)O)CCC3(C)C(=CCC4C5(C)CCC(=O)C(C)(C)C5CCC43C)C2C1C` (centres unmarked) [Compound 40] were 6.94 ± 1.37 µM and 0.93 ± 0.18 µM.
Turning to `CC1CCC2(C(=O)O)CCC3(C)C(=CCC4C5(C)CCC(OC(=O)CCC(=O)O)C(C)(C)C5CCC43C)C2C1C` (centres unmarked) [Compound 42], the IC50 in assay [1] worked out at 20.9 ± 1.78 µM; in assay [2] it was 0.028 ± 0.003 µM.
As for `CC1CCC2(C(=O)O)CCC3(C)C(=CCC4C5(C)C=C(O)C(=O)C(C)(C)C5CCC43C)C2C1C` (centres unmarked) [Compound 43], the IC50 in assay [1] came to 5.21 ± 1.24 µM; in assay [2] (setting [4]) it was 0.032 ± 0.003 µM.

As a reminder, the IC50 is the point on the concentration scale where inhibition reaches its midpoint.
